Measurements taken from patent publication US20210045385A1, “PYRIDAZINONE-SUBSTITUTED KETOXIMES AS HERBICIDES” (FMC Corporation, priority 2018, published 2021).

How the values were obtained:
Format in all cases: in vivo
[1] = tested on: sedge, umbrella (small-flower umbrella sedge, Cyperus difformis); assay: Test B flooded paddy test, visual plant response rating; conditions: 250 g ai/ha, Flood, applied to paddy water, 2-leaf stage, evaluated after 13 to 15 days
How it was run: (§1)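 Visual scores compare treated plants with controls after 13 to 15 days of greenhouse growth. Treatment was made into paddy water standing 3 cm above the soil, with plants at the 2-leaf stage and flooding maintained throughout.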

[2] = tested on: ducksalad (Heteranhera limosa); assay: as above; conditions: 250 g ai/ha, Flood, applied to paddy water, 2-leaf stage, evaluated after 13 to 15 days
How it was run: as §1

rice (Oryza sativa) = assay: as above; conditions: 250 g ai/ha, Flood, applied to paddy water, 2-leaf stage, evaluated after 13 to 15 days
How it was run: as §1

[3] = tested on: barnyardgrass (Echinochloa crus-galli); assay: as above; conditions: 250 g ai/ha, Flood, applied to paddy water, 2-leaf stage, evaluated after 13 to 15 days
How it was run: as §1

kochia (Kochia scoparia) [4] = assay: Test A postemergence, visual plant response rating; conditions: for Kochia plant response rating (0 to 100 scale): 500 g ai/ha, postemergence, 0 is no effect, 100 is complete control; for Kochia plant response rating: Postemergence, 125 g ai/ha, 0 to 100 scale (0 no effect, 100 complete control)
How it was run: (§2)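 Ratings 0–100 (100 = complete control), visual, vs untreated controls at ~10 days. Application pre- or postemergence; solvent mixture with surfactant; loam/sand medium.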

corn (Zea mays) = assay: Test A postemergence, visual plant response rating; conditions: for Corn plant response rating (0 to 100 scale): 500 g ai/ha, postemergence, 0 is no effect, 100 is complete control; for Corn plant response rating: Postemergence, 125 g ai/ha, 0 to 100 scale (0 no effect, 100 complete control)
How it was run: as §2

[5] = tested on: ragweed (common ragweed, Ambrosia elatior); assay: Test A postemergence, visual plant response rating; conditions: for Ragweed plant response rating (0 to 100 scale): 500 g ai/ha, postemergence, 0 is no effect, 100 is complete control; for Ragweed plant response rating: Postemergence, 125 g ai/ha, 0 to 100 scale (0 no effect, 100 complete control)
How it was run: as §2

[6] = tested on: galium (catchweed bedstraw, Galium aparine); assay: Test A postemergence, visual plant response rating; conditions: for Galium plant response rating (0 to 100 scale): 500 g ai/ha, postemergence, 0 is no effect, 100 is complete control; for Galium plant response rating: Postemergence, 125 g ai/ha, 0 to 100 scale (0 no effect, 100 complete control)
How it was run: as §2

[7] = tested on: barnyardgrass (Echinochloa crus-galli); assay: Test A postemergence, visual plant response rating; conditions: for Barnyardgrass plant response rating (0 to 100 scale): 500 g ai/ha, postemergence, 0 is no effect, 100 is complete control; for Barnyardgrass plant response rating: Postemergence, 125 g ai/ha, 0 to 100 scale (0 no effect, 100 complete control)
How it was run: as §2

[8] = tested on: blackgrass (Alopecurus myosuroides); assay: Test A postemergence, visual plant response rating; conditions: for Blackgrass plant response rating (0 to 100 scale): 500 g ai/ha, postemergence, 0 is no effect, 100 is complete control; for Blackgrass plant response rating: Postemergence, 125 g ai/ha, 0 to 100 scale (0 no effect, 100 complete control)
How it was run: as §2

[9] = tested on: wheat (Triticum aestivum); assay: Test A postemergence, visual plant response rating; conditions: for Wheat plant response rating (0 to 100 scale): 500 g ai/ha, postemergence, 0 is no effect, 100 is complete control; for Wheat plant response rating: Postemergence, 125 g ai/ha, 0 to 100 scale (0 no effect, 100 complete control)
How it was run: as §2

[10] = tested on: Italian ryegrass (Lolium multiflorum); assay: Test A postemergence, visual plant response rating; conditions: for Ryegrass, Italian plant response rating (0 to 100 scale): 500 g ai/ha, postemergence, 0 is no effect, 100 is complete control; for Ryegrass, Italian plant response rating: Postemergence, 125 g ai/ha, 0 to 100 scale (0 no effect, 100 complete control)
How it was run: as §2

[11] = tested on: foxtail, green (green foxtail, Setaria viridis); assay: Test A postemergence, visual plant response rating; conditions: for Foxtail, Green plant response rating (0 to 100 scale): 500 g ai/ha, postemergence, 0 is no effect, 100 is complete control; for Foxtail, Green plant response rating: Postemergence, 125 g ai/ha, 0 to 100 scale (0 no effect, 100 complete control)
How it was run: as §2

[12] = tested on: pigweed (Amaranthus retroflexus); assay: Test A postemergence, visual plant response rating; conditions: for Pigweed plant response rating (0 to 100 scale): 500 g ai/ha, postemergence, 0 is no effect, 100 is complete control; for Pigweed plant response rating: Postemergence, 125 g ai/ha, 0 to 100 scale (0 no effect, 100 complete control)
How it was run: as §2

kochia (Kochia scoparia) [13] = assay: Test A preemergence, visual plant response rating; conditions: for Kochia plant response rating: 125 g ai/ha, preemergence, 0 to 100 scale, 0 no effect, 100 complete control; for Kochia plant response rating (0 to 100 scale): 500 g ai/ha Preemergence, approx. 10 days
How it was run: as §2

[14] = tested on: ragweed (common ragweed, Ambrosia elatior); assay: Test A preemergence, visual plant response rating; conditions: for Ragweed plant response rating: 125 g ai/ha, preemergence, 0 to 100 scale, 0 no effect, 100 complete control; for Ragweed plant response rating (0 to 100 scale): 500 g ai/ha Preemergence, approx. 10 days
How it was run: as §2

[15] = tested on: barnyardgrass (Echinochloa crus-galli); assay: Test A preemergence, visual plant response rating; conditions: for Barnyardgrass plant response rating: 125 g ai/ha, preemergence, 0 to 100 scale, 0 no effect, 100 complete control; for Barnyardgrass plant response rating (0 to 100 scale): 500 g ai/ha Preemergence, approx. 10 days
How it was run: as §2

[16] = tested on: Italian ryegrass (Lolium multiflorum); assay: Test A preemergence, visual plant response rating; conditions: for Ryegrass, Italian plant response rating: 125 g ai/ha, preemergence, 0 to 100 scale, 0 no effect, 100 complete control; for Ryegrass, Italian plant response rating (0 to 100 scale): 500 g ai/ha Preemergence, approx. 10 days
How it was run: as §2

[17] = tested on: foxtail, green (green foxtail, Setaria viridis); assay: Test A preemergence, visual plant response rating; conditions: for Foxtail, Green plant response rating: 125 g ai/ha, preemergence, 0 to 100 scale, 0 no effect, 100 complete control; for Foxtail, Green plant response rating (0 to 100 scale): 500 g ai/ha Preemergence, approx. 10 days
How it was run: as §2

[18] = tested on: pigweed (Amaranthus retroflexus); assay: Test A preemergence, visual plant response rating; conditions: for Pigweed plant response rating: 125 g ai/ha, preemergence, 0 to 100 scale, 0 no effect, 100 complete control; for Pigweed plant response rating (0 to 100 scale): 500 g ai/ha Preemergence, approx. 10 days
How it was run: as §2

Structure (SMILES) | Plant response rating, Sedge, Umbrella (0 to 100 scale, 0 is no effect, 100 is complete control) [1] | Plant response rating, Ducksalad (0 to 100 scale, 0 is no effect, 100 is complete control) [2] | Plant response rating, Rice (0 to 100 scale, 0 is no effect, 100 is complete control) (rice (Oryza sativa)) | Plant response rating, Barnyardgrass (0 to 100 scale, 0 is no effect, 100 is complete control) [3] | Kochia plant response rating (0 to 100 scale) (kochia (Kochia scoparia) [4]) | Kochia plant response rating (kochia (Kochia scoparia) [4]) | Corn plant response rating (0 to 100 scale) (corn (Zea mays)) | Corn plant response rating (corn (Zea mays)) | Ragweed plant response rating (0 to 100 scale) [5] | Ragweed plant response rating [5] | Galium plant response rating (0 to 100 scale) [6] | Galium plant response rating [6] | Barnyardgrass plant response rating (0 to 100 scale) [7] | Barnyardgrass plant response rating [7] | Blackgrass plant response rating (0 to 100 scale) [8] | Blackgrass plant response rating [8] | Wheat plant response rating (0 to 100 scale) [9] | Wheat plant response rating [9] | Ryegrass, Italian plant response rating (0 to 100 scale) [10] | Ryegrass, Italian plant response rating [10] | also measured
CO/N=C(/c1ccccc1Cl)c1c(O)c(C)nn(C)c1=O [Compound 63] | 0 | 0 | 0 | 0 | 30 | 10 | 0 | 0 | 50 | 30 | 80 | 60 | 0 | 0 | 80 | 10 | 20 | 0 | 70 | 30 | Foxtail, Green plant response rating (0 to 100 scale) [11]: 10; Foxtail, Green plant response rating [11]: 0; Pigweed plant response rating (0 to 100 scale) [12]: 50; Pigweed plant response rating [12]: 30; Kochia plant response rating (kochia (Kochia scoparia) [13]): 0; Kochia plant response rating (0 to 100 scale) (kochia (Kochia scoparia) [13]): 20; Ragweed plant response rating [14]: 30; Ragweed plant response rating (0 to 100 scale) [14]: 70; Barnyardgrass plant response rating [15]: 0; Barnyardgrass plant response rating (0 to 100 scale) [15]: 0; Ryegrass, Italian plant response rating [16]: 10; Ryegrass, Italian plant response rating (0 to 100 scale) [16]: 50; Foxtail, Green plant response rating [17]: 0; Foxtail, Green plant response rating (0 to 100 scale) [17]: 20; Pigweed plant response rating [18]: 0; Pigweed plant response rating (0 to 100 scale) [18]: 80
CO/N=C(\c1cc(C)ccc1C)c1c(O)c(C)nn(C)c1=O [Compound 66] | 0 | 0 | 0 | 0 | 40 | 20 | 0 | 0 | 50 | 40 | 80 | 60 | 30 | 10 | 50 | 0 | 10 | 0 | 80 | 30 | Foxtail, Green plant response rating (0 to 100 scale) [11]: 20; Foxtail, Green plant response rating [11]: 0; Pigweed plant response rating (0 to 100 scale) [12]: 50; Pigweed plant response rating [12]: 50; Kochia plant response rating (kochia (Kochia scoparia) [13]): 0; Kochia plant response rating (0 to 100 scale) (kochia (Kochia scoparia) [13]): 20; Ragweed plant response rating [14]: 20; Ragweed plant response rating (0 to 100 scale) [14]: 50; Barnyardgrass plant response rating [15]: 0; Barnyardgrass plant response rating (0 to 100 scale) [15]: 20; Ryegrass, Italian plant response rating [16]: 30; Ryegrass, Italian plant response rating (0 to 100 scale) [16]: 50; Foxtail, Green plant response rating [17]: 30; Foxtail, Green plant response rating (0 to 100 scale) [17]: 60; Pigweed plant response rating [18]: 30; Pigweed plant response rating (0 to 100 scale) [18]: 80
